# Data as given in ChEMBL document CHEMBL1201862, “PubChem BioAssay data set” (2004).
# Calls of active or inactive are those of the source.
# Key:
# [1] = target: T1, Corticotropin-releasing factor receptor 2/Corticotropin-releasing factor-binding protein (Homo sapiens, UniProt P24387+Q13324); test: activators of CRF receptor 2 with binding protein – uHTS hits, confirmation (AID 602473); assay type: functional; conditions: read-out: EC50_Mean
# T1 sequence (Q13324 whole entry): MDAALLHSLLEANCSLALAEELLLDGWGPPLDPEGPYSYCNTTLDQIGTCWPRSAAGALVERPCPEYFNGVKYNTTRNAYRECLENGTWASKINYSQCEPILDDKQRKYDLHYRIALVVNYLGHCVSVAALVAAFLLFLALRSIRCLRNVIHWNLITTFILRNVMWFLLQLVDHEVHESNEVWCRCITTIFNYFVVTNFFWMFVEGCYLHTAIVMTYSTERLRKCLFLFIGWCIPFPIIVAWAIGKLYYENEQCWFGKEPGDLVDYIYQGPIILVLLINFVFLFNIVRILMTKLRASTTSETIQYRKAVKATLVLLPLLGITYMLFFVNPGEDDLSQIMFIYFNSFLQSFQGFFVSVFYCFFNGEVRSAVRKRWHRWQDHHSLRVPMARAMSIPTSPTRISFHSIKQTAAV
# T1 sequence (P24387 whole entry): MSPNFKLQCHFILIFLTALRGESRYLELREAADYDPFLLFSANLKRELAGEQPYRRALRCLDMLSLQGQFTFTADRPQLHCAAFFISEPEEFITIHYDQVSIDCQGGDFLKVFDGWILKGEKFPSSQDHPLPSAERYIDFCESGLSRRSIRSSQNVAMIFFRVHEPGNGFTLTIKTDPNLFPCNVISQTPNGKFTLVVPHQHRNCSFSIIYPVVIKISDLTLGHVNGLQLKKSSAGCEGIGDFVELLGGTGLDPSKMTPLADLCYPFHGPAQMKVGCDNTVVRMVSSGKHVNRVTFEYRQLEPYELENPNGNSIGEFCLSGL
# [2] = target: T1, Corticotropin-releasing factor receptor 2/Corticotropin-releasing factor-binding protein; test: Dose Response confirmation of uHTS hits for small molecule antagonists of the CRF-binding protein and CRF-R2 receptor complex.; assay type: functional; conditions: read-out: IC50_Mean
# [3] = target: Cytochrome P450 2C9 (Homo sapiens, UniProt P11712)
# Cytochrome P450 2C9, sequence (P11712 whole entry): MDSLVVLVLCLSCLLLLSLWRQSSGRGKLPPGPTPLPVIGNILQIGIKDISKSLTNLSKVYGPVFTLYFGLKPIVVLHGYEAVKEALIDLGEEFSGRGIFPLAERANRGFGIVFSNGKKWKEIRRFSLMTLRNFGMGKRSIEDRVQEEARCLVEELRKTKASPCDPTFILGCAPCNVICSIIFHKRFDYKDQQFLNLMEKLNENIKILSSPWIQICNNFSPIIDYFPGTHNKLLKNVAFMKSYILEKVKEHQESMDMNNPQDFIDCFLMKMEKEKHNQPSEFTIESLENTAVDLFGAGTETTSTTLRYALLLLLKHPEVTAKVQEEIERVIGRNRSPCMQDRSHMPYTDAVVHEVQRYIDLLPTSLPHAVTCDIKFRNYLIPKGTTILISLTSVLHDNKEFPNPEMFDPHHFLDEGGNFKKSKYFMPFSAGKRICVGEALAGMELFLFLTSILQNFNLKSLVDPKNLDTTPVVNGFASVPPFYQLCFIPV
# [4] = target: Cytochrome P450 2C19 (Homo sapiens, UniProt P33261); test: Cytochrome panel assay with activity outcomes. Panel member name: p450-cyp2c19 Compounds with AC50 equal or less than 10 uM are considered active; assay type: functional; conditions: read-out: AC50
# Cytochrome P450 2C19, sequence (P33261 whole entry): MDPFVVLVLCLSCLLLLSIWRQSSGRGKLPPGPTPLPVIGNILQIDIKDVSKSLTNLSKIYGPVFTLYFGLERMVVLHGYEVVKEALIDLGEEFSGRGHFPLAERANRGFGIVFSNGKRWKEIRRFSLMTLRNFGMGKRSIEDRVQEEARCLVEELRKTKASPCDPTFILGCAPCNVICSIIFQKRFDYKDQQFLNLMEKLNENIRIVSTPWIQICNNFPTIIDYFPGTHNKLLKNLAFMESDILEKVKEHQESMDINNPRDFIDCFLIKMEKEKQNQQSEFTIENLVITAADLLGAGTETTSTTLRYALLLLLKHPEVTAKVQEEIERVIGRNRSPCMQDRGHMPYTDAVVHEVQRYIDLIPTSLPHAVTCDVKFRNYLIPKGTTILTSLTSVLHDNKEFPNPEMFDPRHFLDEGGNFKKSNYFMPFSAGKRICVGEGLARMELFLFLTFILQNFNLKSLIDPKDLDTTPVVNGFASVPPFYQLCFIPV
# [5] = target: Cytochrome P450 2D6 (Homo sapiens, UniProt P10635);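 also: CYP2D6 member of a cytochrome P450 panel assay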
# Cytochrome P450 2D6, sequence (P10635 whole entry): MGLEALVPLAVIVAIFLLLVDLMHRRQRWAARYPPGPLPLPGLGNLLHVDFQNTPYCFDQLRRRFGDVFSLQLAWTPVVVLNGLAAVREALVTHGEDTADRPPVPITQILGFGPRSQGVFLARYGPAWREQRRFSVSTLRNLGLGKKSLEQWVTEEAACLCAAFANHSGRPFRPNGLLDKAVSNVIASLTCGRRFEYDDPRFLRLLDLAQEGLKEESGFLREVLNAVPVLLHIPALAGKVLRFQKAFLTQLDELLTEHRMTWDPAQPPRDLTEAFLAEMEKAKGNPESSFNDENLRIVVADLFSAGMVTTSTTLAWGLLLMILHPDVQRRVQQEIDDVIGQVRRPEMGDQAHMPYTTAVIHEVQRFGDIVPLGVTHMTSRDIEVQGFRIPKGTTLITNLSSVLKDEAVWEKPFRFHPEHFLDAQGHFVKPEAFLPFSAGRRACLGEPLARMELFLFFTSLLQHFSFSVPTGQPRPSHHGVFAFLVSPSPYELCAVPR
# [6] = target: T2, Cytochrome P450 1A2 (Homo sapiens, UniProt P05177);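 also: PubChem cytochrome P450 panel assay, CYP1A2 panel member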
# T2 sequence (P05177 whole entry): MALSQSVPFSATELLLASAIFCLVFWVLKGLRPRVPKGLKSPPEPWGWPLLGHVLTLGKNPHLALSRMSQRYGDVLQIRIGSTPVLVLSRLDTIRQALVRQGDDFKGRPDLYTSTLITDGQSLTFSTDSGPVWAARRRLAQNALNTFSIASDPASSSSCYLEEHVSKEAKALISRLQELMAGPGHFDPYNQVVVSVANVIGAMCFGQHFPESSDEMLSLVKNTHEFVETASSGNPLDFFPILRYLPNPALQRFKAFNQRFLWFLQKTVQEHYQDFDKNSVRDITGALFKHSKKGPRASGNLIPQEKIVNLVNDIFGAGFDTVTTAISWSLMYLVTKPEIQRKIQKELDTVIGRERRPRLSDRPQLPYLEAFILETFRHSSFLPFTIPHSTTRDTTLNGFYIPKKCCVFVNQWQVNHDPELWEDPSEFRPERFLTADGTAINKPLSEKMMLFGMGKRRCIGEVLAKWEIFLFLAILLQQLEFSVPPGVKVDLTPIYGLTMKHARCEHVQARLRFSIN
# [7] = Luminescence Cell-Based Dose Response HTS to Identify Activators of Luciferase Translation or Activity in H4 […] Cells. [Related pubchem assays: 1829 (Project Summary), 1814 (Primary HTS)]; assay type: functional
# [8] = tested on: H4; test: Luminescence Cell-Based Dose Response HTS to Identify Activators of 5'UTR Stem-Loop Driven Prion Protein mRNA Translation in H4 Neuroglioblastoma Cells. [Related pubchem assays: 1829 (Project Summary), 1814 (Primary HTS)]; assay type: functional; conditions: Homo sapiens
# [9] = Luminescence Cell-Based Dose Confirmation HTS to Identify Activators of 5'UTR Stem-Loop Driven Alpha-Synuclein mRNA Translation in H4 Neuroglioblastoma Cells. [Related pubchem assays: 1829 (Project Summary), 1814 (Primary HTS)]; assay type: functional
# [10] = target: Cytochrome P450 3A4 (Homo sapiens, UniProt P08684);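 also: CYP3A4 tested as one member of a cytochrome P450 panel screen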
# Cytochrome P450 3A4, sequence (P08684 whole entry): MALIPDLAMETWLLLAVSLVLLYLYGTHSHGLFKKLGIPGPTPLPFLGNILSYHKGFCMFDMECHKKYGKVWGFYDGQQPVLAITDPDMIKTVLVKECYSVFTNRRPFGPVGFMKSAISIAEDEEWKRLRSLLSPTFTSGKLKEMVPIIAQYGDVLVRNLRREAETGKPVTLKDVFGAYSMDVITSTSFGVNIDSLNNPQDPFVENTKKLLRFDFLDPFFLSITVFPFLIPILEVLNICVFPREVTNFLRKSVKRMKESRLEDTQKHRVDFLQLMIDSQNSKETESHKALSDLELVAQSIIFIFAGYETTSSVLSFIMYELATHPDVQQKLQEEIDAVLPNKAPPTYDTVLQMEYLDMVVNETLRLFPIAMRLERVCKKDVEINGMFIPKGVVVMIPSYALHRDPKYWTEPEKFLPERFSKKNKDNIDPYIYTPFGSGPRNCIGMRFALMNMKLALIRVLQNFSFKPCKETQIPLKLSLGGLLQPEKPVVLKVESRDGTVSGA
smiles,measurement,setting,value
CC(N=C1NS(=O)(=O)c2ccccc21)C(=O)N1CCc2ccccc2C1 (centres undefined),EC50,[1],> 53 µM (inactive)
same,IC50,[2],> 47.1 µM (inactive)
O=C(NCC1CCCO1)C(c1cccnc1)N(C(=O)Cc1cccs1)c1ccccc1 (centres undefined),AC50,[3],15.8 µM (inconclusive)
same,AC50,[4],17.8 µM (inconclusive)
same,AC50,[5],15.8 µM (inconclusive)
Cc1ccccc1C(=O)c1cccn1CC(=O)NCc1ccco1,AC50,[6],10 µM (inconclusive)
O=C(Nc1ccccc1N1CCOCC1)c1ccc([N+](=O)[O-])cc1,AC50,[3],10 µM (inconclusive)
same,AC50,[5],15.8 µM (inconclusive)
CC(C)CN1CC[C@@]2(CCCN(C(=O)Oc3ccccc3)C2)C1,AC50,[6],15.8 µM (inconclusive)
same,AC50,[3],31.6 µM (inconclusive)
[O-]c1c[n+](CC[n+]2cc([O-])on2)no1,AC50,[6],2.51 µM (inconclusive)
COc1cc(/C=C2\CCC(C)C3=C(c4cc(OC)c(OC)c(OC)c4)C(C#N)=C(N)OC32)cc(OC)c1OC (centres undefined),EC50,[1],> 53 µM (inactive)
O=[N+]([O-])c1cccc(/N=C/C=C(/O)c2ccco2)c1,EC50,[7],17 µM (active)
same,EC50,[8],> 120 µM (not active)
same,EC50,[9],1.14 µM (active)
O=C(/C=C/c1ccccc1)NNC(=O)c1cccnc1,AC50,[3],7.08 µM (inconclusive)
same,AC50,[4],31.6 µM (inconclusive)
Cc1cc(OCC(=O)C(C)(C)C)c2c(C)c(C)c(=O)oc2c1,EC50,[1],> 53 µM (inactive)
same,IC50,[2],> 47.1 µM (inactive)
Cc1cc2c(nc1C)CCCCN2C[C@H](O)CN1CCCc2nc(-c3ccc(Br)cc3)ccc21,AC50,[3],3.98 µM (inconclusive)
same,AC50,[5],3.16 µM (inconclusive)
NC(=S)c1ccc[n+]([C@@H]2O[C@@H](COP(=O)([O-])OP(=O)(O)OC[C@@H]3O[C@@H](n4cnc5c(N)ncnc54)[C@@H](OP(=O)(O)O)[C@H]3O)[C@@H](O)[C@H]2O)c1,AC50,[6],39.8 µM (inconclusive)
CCCCCC/C(C)=C1/SC(=S)NC1=O,AC50,[5],28.2 µM (inconclusive)
Cc1noc(C)c1-c1nc(N2CCN(C)CC2)c2ccccc2n1,AC50,[5],39.8 µM (inconclusive)
CN(Cc1ccccc1)C(=O)c1cccc(NC(=O)Cc2ccc(NC(=O)C3CCCN(C(=O)CCc4ccccc4)C3)cc2)c1 (centres undefined),EC50,[1],> 53 µM (inactive)
same,IC50,[2],> 47.1 µM (inactive)
O=C(CSc1nc2ccccc2c(=O)n1NC(=O)Cc1ccccc1)NCc1ccccc1Cl,AC50,[5],2.82 µM (inconclusive)
COC(=O)[C@@]1(Cc2ccc(OC)cc2)[C@H]2c3cc(C(=O)N4CCCC4)n(Cc4c(CO)ncc(C)c4O)c3C[C@H]2CN1C(=O)c1ccccc1,AC50,[6],25.1 µM (inconclusive)
same,AC50,[5],20 µM (inconclusive)
Nc1c(C(=O)N2CCCCCC2)oc2ccccc12,EC50,[1],> 53 µM (inactive)
same,IC50,[2],> 47.1 µM (inactive)
CCOc1ccccc1NC(=O)C1CCC(=O)N1S(=O)(=O)c1ccc(C)cc1 (centres undefined),EC50,[1],> 53 µM (inactive)
same,IC50,[2],> 47.1 µM (inactive)
Cc1cc(NC(=O)CSc2nc3c(C)cccc3cc2C#N)no1,EC50,[7],> 120 µM (not active)
same,EC50,[8],16.1 µM (active)
same,EC50,[9],47.9 µM (active)
CC(=O)c1ccc(N(C(=O)Cn2nnc3ccccc32)C(C(=O)NCc2ccccc2)c2ccccn2)cc1 (centres undefined),EC50,[7],8.14 µM (active)
same,EC50,[8],> 120 µM (not active)
same,EC50,[9],> 120 µM (not active)
CC1=CC(C)(C(Cl)(Cl)Cl)C(C)=CC1=NO (centres undefined),EC50,[1],> 53 µM (inactive)
same,IC50,[2],> 47.1 µM (inactive)
O=C(CC(=O)NN=C1CCCC1)NCCc1ccccc1,AC50,[4],25.1 µM (inconclusive)
Nn1c(SCc2ccccc2)nnc1C1CCCCC1,EC50,[7],10.6 µM (active)
same,EC50,[8],21 µM (active)
same,EC50,[9],25.5 µM (active)
Cc1ccc(Oc2ccccc2/C=C2\SC(=O)N(C)C2=O)cc1,AC50,[5],8.91 µM (inconclusive)
CCC(=C(CC)c1ccc(O)cc1)c1ccc(O)cc1 [DIETHYLSTILBESTROL],AC50,[6],15.8 µM (active)
same,AC50,[3],12.6 µM (active)
same,AC50,[4],15.8 µM (inconclusive)
same,AC50,[5],15.8 µM (inconclusive)
Cc1ccc(S(=O)(=O)NN=C(S)Nc2cccc(F)c2)cc1,EC50,[1],> 53 µM (inactive)
same,IC50,[2],> 47.1 µM (inactive)
O=C(Nc1ccccc1)N1CCCC2(CCN(C(=O)c3csnn3)CC2)C1,AC50,[6],25.1 µM (inconclusive)
same,AC50,[4],3.98 µM (inconclusive)
same,AC50,[5],39.8 µM (inconclusive)
CCOC(=O)c1c(NC(=O)CCCN2CCOCC2)sc2c1CC(C)(C)OC2,AC50,[3],0.282 µM (inconclusive)
same,AC50,[4],39.8 µM (inconclusive)
Cc1cc(NC(=O)Cn2nc3c(cc2=O)CCCC3)ccc1Br,EC50,[1],> 53 µM (inactive)
same,IC50,[2],> 47.1 µM (inactive)
COc1ccc(CNC(=O)CN2CCN(S(=O)(=O)c3cc(Br)ccc3Br)CC2)cc1OC,EC50,[1],> 53 µM (inactive)
same,IC50,[2],> 47.1 µM (inactive)
Cc1ccc(N/C=C(/C#N)c2ccsc2)cc1,EC50,[7],52.3 µM (active)
same,EC50,[8],68.4 µM (active)
same,EC50,[9],46.7 µM (active)
Cc1ccccc1N(CC(=O)N1CCN(Cc2ccccc2)CC1)S(C)(=O)=O,EC50,[1],> 53 µM (inactive)
same,IC50,[2],> 47.1 µM (inactive)
COC(=O)C1=C(C)NC(C)=C(C(=O)OC(C)C)[C@H]1c1cccc2nonc12 [(S)-ISRADIPINE],AC50,[6],12.6 µM (inconclusive)
COc1ccc(N2CCN(CCCNC(=O)CN3CCN(Cc4ccccc4C)C3=O)CC2)cc1,EC50,[1],> 53 µM (inactive)
same,IC50,[2],> 47.1 µM (inactive)
O=C(CSc1nnc(Cn2nnc3ccccc32)o1)Nc1cccc(Cl)c1,AC50,[3],15.8 µM (inconclusive)
same,AC50,[4],22.4 µM (inconclusive)
O=C(Oc1ccc(S(=O)(=O)F)cc1F)c1ccccc1Cl,AC50,[6],5.01 µM (inconclusive)
Cc1ccc(C)c(Cn2cnc3c(cnn3C(C)(C)C)c2=O)c1,AC50,[6],10 µM (inconclusive)
same,AC50,[10],0.794 µM (inconclusive)
C=CC[C@@H]1C=C[C@H](Oc2ccc(C)cc2)[C@H](COC(=O)NCc2cccc3ccccc23)O1,AC50,[3],3.98 µM (inconclusive)
same,AC50,[5],7.94 µM (inconclusive)
COc1ccc(CCNC(=O)c2nnn(CC(=O)Nc3ccccc3C)c2N)cc1OC,AC50,[4],17.8 µM (inconclusive)
C=CCn1c(SCC(=O)N2CC(=O)Nc3ccccc32)nc2scc(-c3ccccc3)c2c1=O,AC50,[6],14.1 µM (inconclusive)
COC(=O)[C@@]1(Cc2ccc(OC)cc2)[C@H]2c3cc(C(=O)N4CCCC4)n(CCN4CNCC4=O)c3C[C@H]2CN1C(=O)c1ccccc1,AC50,[6],31.6 µM (inconclusive)
COC(=O)C1CSc2[nH]c(=O)sc2C1c1ccc(O)c(OC)c1 (centres undefined),EC50,[1],> 53 µM (inactive)
same,IC50,[2],> 47.1 µM (inactive)
CCC(=O)Nc1nnc(C(C)(C)C)s1,AC50,[6],17.8 µM (inconclusive)
Oc1nc2cc(Cl)ccc2c(O)c1-c1ccc(Oc2ccccc2)cc1,AC50,[6],10 µM (inconclusive)
same,AC50,[10],10 µM (inconclusive)
Oc1c(CN2CCOCC2)cc(-c2ccccc2)cc1CN1CCOCC1,AC50,[3],28.2 µM (inconclusive)
same,AC50,[4],11.2 µM (inconclusive)
COc1cccc(Cn2c(=O)c(-c3ccc(Cl)cc3)nc3cnc(OC)nc32)c1,AC50,[3],7.94 µM (inconclusive)
same,AC50,[4],1.26 µM (inconclusive)
Nc1c2c(nc3ccccc13)CCN(Cc1ccccc1)C2,EC50,[1],> 53 µM (inactive)
